Several values for one entry are separate records, joined by “and”; a condition that tells them apart may be missing. Equal entries are not always repeated. Toxic doses and inconclusive results are not listed. Cut-off read from the data, not from the text of the source: active = T/C of 150% or more; inactive = T/C below 125%. Square brackets hold non-standard residues; d marks the D form. Peptide text beside a SMILES is read from it. ξ: configuration not given here. ξE = NC(CCC(=O)O)C(=O)O
Test system: L1210 leukemia ip in BDF1 mice, survival T/C
Assay: NCI In Vivo Anticancer Drug Screen. Data for tumor model L1210 Leukemia (intraperitoneal) in B6D2F1 (BDF1) mice
Settings: endpoint: mean survival time, higher = longer survival
Method: The antitumor activity of compounds was measured in mice bearing transplantable tumors. Survival or tumor size were measured and the results are expressed as the measurement made in the treated group (T) divided by the measurement made in the vehicle treated control group (C). The tumor model used in this assay is L1210 Leukemia (intraperitoneal) in B6D2F1 (BDF1) mice

[1] = dose: 75.0 mg/kg/injection, schedule: Q01DX001 (ip), vehicle: saline
[2] = dose: 100.0 mg/kg/injection, schedule: Q01DX009 (ip), vehicle: saline
[3] = dose: 200.0 mg/kg/injection, schedule: Q01DX009 (ip), vehicle: saline
[4] = dose: 400.0 mg/kg/injection, schedule: Q01DX009 (ip), vehicle: saline
[5] = dose: 100.0 mg/kg/injection, schedule: Q01DX001 (ip), vehicle: saline
[6] = dose: 200.0 mg/kg/injection, schedule: Q01DX001 (ip), vehicle: saline
[7] = dose: 400.0 mg/kg/injection, schedule: Q01DX001 (ip), vehicle: saline
[8] = dose: 100.0 mg/kg/injection, schedule: Q04DX003 (ip), vehicle: saline with Tween-80
[9] = dose: 200.0 mg/kg/injection, schedule: Q04DX003 (ip), vehicle: saline with Tween-80
[10] = dose: 400.0 mg/kg/injection, schedule: Q04DX003 (ip), vehicle: saline with Tween-80

Measured: T/C

CC1(c2cccc3ccccc23)OCC2(CCC2)CO1
inactive: dose: 100.0 mg/kg/injection, schedule: Q01DX001 (ip), vehicle: Klucel (hydroxypropylcellulose) (HPC) 102 % of control | dose: 200.0 mg/kg/injection, schedule: Q01DX001 (ip), vehicle: Klucel (hydroxypropylcellulose) (HPC) 98 % of control | dose: 400.0 mg/kg/injection, schedule: Q01DX001 (ip), vehicle: Klucel (hydroxypropylcellulose) (HPC) 100 % of control

O=C(O)c1cc(-c2ccc(Cl)cc2)nc2c(Cl)cccc12
inactive: dose: 20.0 mg/kg/injection, schedule: Q01DX009 (ip), vehicle: Klucel (hydroxypropylcellulose) (HPC) 95 % of control | dose: 20.0 mg/kg/injection, schedule: Q04DX003 (ip), vehicle: Klucel (hydroxypropylcellulose) (HPC) 107 % of control | dose: 40.0 mg/kg/injection, schedule: Q01DX009 (ip), vehicle: Klucel (hydroxypropylcellulose) (HPC) 103 % of control | dose: 40.0 mg/kg/injection, schedule: Q04DX003 (ip), vehicle: Klucel (hydroxypropylcellulose) (HPC) 100 % of control | dose: 80.0 mg/kg/injection, schedule: Q01DX009 (ip), vehicle: Klucel (hydroxypropylcellulose) (HPC) 108 % of control | dose: 80.0 mg/kg/injection, schedule: Q04DX003 (ip), vehicle: Klucel (hydroxypropylcellulose) (HPC) 97 % of control

C=C1C(=O)OC2CC3(C)C(OC(C)=O)CC=C(C)C3C(OC(C)=O)C12 (centres undefined) (tested in a mixture with another compound)
inactive: [1] 96 % of control | dose: 150.0 mg/kg/injection, schedule: Q01DX001 (ip), vehicle: saline 100 % of control

CC1(C)CCC2=C1CC[C@H]1[C@H]2CCC2=CC(=O)CC[C@@]21C
inactive: dose: 50.0 mg/kg/injection, schedule: Q01DX001 (sc), vehicle: steriod suspending solution 102 % of control | dose: 100.0 mg/kg/injection, schedule: Q01DX001 (sc), vehicle: steriod suspending solution 96 % of control | dose: 200.0 mg/kg/injection, schedule: Q01DX001 (sc), vehicle: steriod suspending solution 102 % of control | dose: 400.0 mg/kg/injection, schedule: Q01DX001 (sc), vehicle: steriod suspending solution 102 % of control

NC(CCC(=O)O)C(=O)NCC(=O)O (centres undefined) (H-[ξE]-Gly-OH)
inactive: dose: 12.5 mg/kg/injection, schedule: Q04DX002 (ip), vehicle: saline 96 % of control | dose: 25.0 mg/kg/injection, schedule: Q04DX002 (ip), vehicle: saline 102 % of control | dose: 50.0 mg/kg/injection, schedule: Q04DX002 (ip), vehicle: saline 90 % of control

O=C(O)c1cc(S(=O)(=O)F)ccc1O
inactive: dose: 100.0 mg/kg/injection, schedule: Q04DX002 (ip), vehicle: saline with Tween-80 101 % of control | dose: 200.0 mg/kg/injection, schedule: Q04DX002 (ip), vehicle: saline with Tween-80 101 % of control | dose: 400.0 mg/kg/injection, schedule: Q04DX002 (ip), vehicle: saline with Tween-80 104 % of control

COC(=O)CCC#N
inactive: [2] 101 % of control | [3] 91 % of control | [4] 102 % of control

CCCCCC(C)SC#N (centres undefined)
inactive: dose: 25.0 mg/kg/injection, schedule: Q01DX009 (ip), vehicle: saline with Tween-80 107 % of control | dose: 50.0 mg/kg/injection, schedule: Q01DX009 (ip), vehicle: saline with Tween-80 102 % of control | dose: 100.0 mg/kg/injection, schedule: Q01DX009 (ip), vehicle: saline with Tween-80 88 % of control

CCCC(CCC)(C(N)=O)c1ccc(OC)cc1
inactive: dose: 100.0 mg/kg/injection, schedule: Q01DX001 (ip), vehicle: carboxymethylcellulose (CMC) 87 % of control | dose: 200.0 mg/kg/injection, schedule: Q01DX001 (ip), vehicle: carboxymethylcellulose (CMC) 98 % of control | dose: 400.0 mg/kg/injection, schedule: Q01DX001 (ip), vehicle: carboxymethylcellulose (CMC) 93 % of control

CCCC/C(=N\OC(=O)N(C)C)c1ccccc1
inactive: [5] 103 % of control | [6] 98 % of control | [7] 98 % of control

CS(=O)(=O)OCCN(CCOS(C)(=O)=O)c1ccc(C=O)cc1
inactive: dose: 3.8 mg/kg/injection, schedule: Q01DX009 (ip), vehicle: saline 122 % of control | dose: 6.0 mg/kg/injection, schedule: Q01DX001 (ip), vehicle: saline 112 % of control | dose: 7.5 mg/kg/injection, schedule: Q01DX009 (ip), vehicle: saline 113 % of control | dose: 12.0 mg/kg/injection, schedule: Q01DX001 (ip), vehicle: saline 118 % of control | dose: 15.0 mg/kg/injection, schedule: Q01DX009 (ip), vehicle: saline 122 % of control | dose: 25.0 mg/kg/injection, schedule: Q01DX001 (ip), vehicle: saline 120 % of control | dose: 30.0 mg/kg/injection, schedule: Q01DX009 (ip), vehicle: saline 116 % of control | dose: 60.0 mg/kg/injection, schedule: Q01DX009 (ip), vehicle: saline 116 % of control and 118 % of control | [1] 104 % of control | dose: 99.0 mg/kg/injection, schedule: Q01DX009 (ip), vehicle: saline 110 % of control

Cc1cccc(N(CCOC(=O)Nc2ccc(Cl)cc2)CCOC(=O)Nc2ccc(Cl)cc2)c1
inactive: [5] 94 % of control | [6] 94 % of control | [7] 96 % of control

O=C(O)CC1CCC(CC(=O)O)CC1 (centres undefined)
inactive: [8] 92 % of control | [9] 89 % of control | [10] 94 % of control

O=S(=O)(c1ccccc1)C1CC1c1ccc(Cl)cc1 (centres undefined)
inactive: [5] 97 % of control | dose: 100.0 mg/kg/injection, schedule: Q04DX003 (ip), vehicle: saline 104 % of control | [6] 92 % of control | dose: 200.0 mg/kg/injection, schedule: Q04DX003 (ip), vehicle: saline 96 % of control | [7] 98 % of control | dose: 400.0 mg/kg/injection, schedule: Q04DX003 (ip), vehicle: saline 96 % of control

CC(=O)CC1CCC(CC(C)=O)CC1 (centres undefined)
inactive: dose: 100.0 mg/kg/injection, schedule: Q04DX002 (ip), vehicle: other 98 % of control | dose: 200.0 mg/kg/injection, schedule: Q04DX002 (ip), vehicle: other 90 % of control | dose: 400.0 mg/kg/injection, schedule: Q04DX002 (ip), vehicle: other 98 % of control

CC(=O)C1COC(O)C1C (centres undefined)
inactive: dose: 0.15 mg/kg/injection, schedule: Q01DX009 (ip), vehicle: saline 102 % of control | dose: 0.31 mg/kg/injection, schedule: Q01DX009 (ip), vehicle: saline 100 % of control | dose: 0.62 mg/kg/injection, schedule: Q01DX009 (ip), vehicle: saline 105 % of control | dose: 1.25 mg/kg/injection, schedule: Q01DX009 (ip), vehicle: saline 107 % of control | dose: 2.5 mg/kg/injection, schedule: Q01DX009 (ip), vehicle: saline 112 % of control | dose: 5.0 mg/kg/injection, schedule: Q01DX001 (ip), vehicle: saline 101 % of control | dose: 10.0 mg/kg/injection, schedule: Q01DX001 (ip), vehicle: saline 113 % of control

C1=CC2CC3(OCCO3)C2C1 (centres undefined)
inactive: [8] 95 % of control | [9] 92 % of control | [10] 92 % of control

CCN(CC)CCOC(=O)c1[nH]cnc1N
inactive: [5] 96 % of control | [6] 104 % of control | [7] 96 % of control

O=C1CC(NCCO)C(=O)NN1 (centres undefined)
inactive: [2] 101 % of control | [3] 97 % of control | [4] 100 % of control

— PubChem BioAssay AID248 (DTP/NCI, 2004)
